Source: patent US10874743B2, “IRAK degraders and uses thereof” (Kymera Therapeutics, Inc., priority 2017, dated 2020)

Target: T1, IRAK4 (Homo sapiens, UniProt Q9NWZ3)
T1 sequence (Q9NWZ3 1-460): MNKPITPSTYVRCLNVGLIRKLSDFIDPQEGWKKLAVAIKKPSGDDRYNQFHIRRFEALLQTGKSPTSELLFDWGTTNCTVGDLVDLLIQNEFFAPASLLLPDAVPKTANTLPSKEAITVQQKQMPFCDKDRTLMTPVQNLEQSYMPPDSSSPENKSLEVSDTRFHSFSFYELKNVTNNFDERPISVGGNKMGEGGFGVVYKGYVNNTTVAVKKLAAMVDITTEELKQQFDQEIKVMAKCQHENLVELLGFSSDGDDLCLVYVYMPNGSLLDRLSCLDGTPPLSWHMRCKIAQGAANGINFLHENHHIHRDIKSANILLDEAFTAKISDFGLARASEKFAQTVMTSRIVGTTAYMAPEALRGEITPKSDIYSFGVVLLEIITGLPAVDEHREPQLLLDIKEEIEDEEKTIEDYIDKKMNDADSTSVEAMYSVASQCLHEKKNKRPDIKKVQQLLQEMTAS
Experiment: THP-1 degradation assay (western blot, % IRAK4 degraded after 24 hours)
Type: cell-based
Set-up: endogenous in cells
Settings: THP-1 cells
Experimental: Compounds were reconstituted in DMSO to make stock solutions at concentration of 60 mM. THP-1 and OCI-LY10 cells were maintained in RPMI-1640 medium containing 10% FBS, 0.5 μM 2-ME or 20% FBS, 55 μM 2-ME, and 1% L-Glutamine respectively.
Cells were seeded into 6-well plates with 5e6 cells per well. 200 μL of diluted compounds were added to cells to the final concentration of 0.003-10 μM. After 4 or 24 hour-incubation at 37° C., cells were collected into 2 mL Eppendorf tubes and centrifuged at 1,000 rpm for 5 min. The cell pellets were washed with 1×DPBS once and resuspended in 60 μL lysis buffer. The cells were lysed on ice for 10 min, then centrifuged at 14,000 rpm for 10 min at 4° C. and the supernatants were collected for western blots. For THP-1 cells, the lysis buffer contained 40 mM pH 7.4 HEPES, 140 mM NaCl, 2.5 mM EDTA, 1% NP-40, 0.1% SDS, and protease inhibitor cocktail (Roche, Cat. No. 05892791001). For OCI-LY10 cells, RIPAbuffer (Thermo Fisher, 89900) with Halt Protease and Phosphatase Inhibitor Cocktail (Thermo Fisher, 78446) was applied.
The protein concentration of cell lysates was quantified with Pierce™ BCA Protein Assay Kit (Pierce, 23227). Albumin standards at different concentrations were prepared, involving 2,000 ug/mL, 1,500 ug/mL, 1,000 ug/mL, 750 ug/mL, 500 ug/mL, 250 ug/mL, 125 ug/mL, and 25 ug/mL. BCA working reagents were prepared by mixing BCA reagent A with reagent B in 50:1 ratio. 200 μL of the BCA working reagents were added to 25 μL of BCA standard or cell lysates in microplate, and mixed thoroughly on a plate shaker for 30 seconds. After incubation at 37° C. for 30 min, the absorbance of samples at 562 nm were measured with EnVision Plate Reader.
Protein lysates were prepared in NuPAGE™ LDS sample buffer and NuPAGE™ sample reducing agent, and incubated at 95° C. for 5 min. For western blots, 20-25 μg of total proteins were resolved in 4-12% Bis-Tris gels (Introgen, WG1403A) or 10% Bis-Tris Midi gels (Invitrogen, WG1202BOX) running with 1×MOPS SDS running buffer (Invitrogen, NP0001) or 1×MES SDS running buffer (Invitrogen, NP0002). The proteins were transferred to low fluorescence PVDF membranes using the Trans-Blot Turbo Transfer System. Membranes were then blocked in Odyssey blocking buffer at RT for 1 h followed by primary incubation at 4° C. overnight. The primary antibodies were IRAK1 rabbit monoclonal antibody (CST, #4504S, 1:500), IRAK3 rabbit polyclonal antibody (CST, #4369, 1:500), IRAK4 rabbit polyclonal antibody (CST, #4363S, 1:1,000), MyD88 rabbit monoclonal antibody (Abcam, Ab133739, 1:2,000), j3-actin mouse monoclonal antibody (Sigma, A5441, 10,000), and Gapdh mouse monoclonal antibody (Millipore, MAB374, 1:5,000). Membranes were washed three times with 1×TBST, and then incubated with IR Dye 800 CW Goat anti-rabbit (Licor, #926-32211) and IR Dye 700 CW Goat anti-mouse (Licor, #926-68070) secondary antibodies in 1:10,000 dilution at RT for 1 h. The western blot images were obtained using Odyssey Imaging System.
THP-1 results at 24 hours. The letter codes indicate the percentage of IRAK4 degraded after 24 hours: A (>50% degradation), B (>20-50% degradation) and C (<20% degradation)

Row | THP-1 24 h % IRAK4 Degradation | Structure (SMILES)
1 | A (>50% degradation) | Cc1ncsc1-c1ccc(CNC(=O)[C@@H]2C[C@@H](O)CN2C(=O)[C@H](NC(=O)CCCCNC(=O)[C@H]2CC[C@H](NC(=O)c3cnc(Nc4ccc5cnccc5n4)cc3NC3CC3)CC2)C(C)(C)C)cc1 [I-15]
2 | C (<20% degradation) | O=C(COc1cccc2c1C(=O)N(C1CCC(=O)NC1=O)C2=O)NCCOCCOCC(F)CNC(=O)c1cnc(Nc2ccc3cnccc3n2)cc1NC1CC1 (centres unmarked) [I-99]
3 | B (>20-50% degradation) | O=C(COc1cccc2c1C(=O)N(C1CCC(=O)NC1=O)C2=O)NCCCOCCCOCC(F)CNC(=O)c1cnc(Nc2ccc3cnccc3n2)cc1NC1CC1 (centres unmarked) [I-100]
4 | C (<20% degradation) | O=C(COc1cccc2c1C(=O)N(C1CCC(=O)NC1=O)C2=O)NCCNC(=O)[C@H]1CC[C@H](NC(=O)c2cnc(Nc3ccc4cnccc4n3)cc2NC2CC2)CC1 (some centres unmarked) [I-8]
5 | C (<20% degradation) | O=C1CCC(N2C(=O)c3cccc(NCCOCCOCCOCCOCCNC(=O)[C@H]4CC[C@H](NC(=O)c5cnc(Nc6ccc7cnccc7n6)cc5NC5CC5)CC4)c3C2=O)C(=O)N1 (some centres unmarked) [I-11]
6 | C (<20% degradation) | Cc1ncsc1-c1ccc(CNC(=O)[C@@H]2C[C@@H](O)CN2C(=O)[C@@H](NC(=O)COCCOCCOCC(F)CNC(=O)c2cnc(Nc3ccc4cnccc4n3)cc2NC2CC2)C(C)(C)C)cc1 (some centres unmarked) [I-120]
7 | B (>20-50% degradation) | O=C(COc1cccc2c1C(=O)N(C1CCC(=O)NC1=O)C2=O)NCCOCCOCCOCCOCCOCC(F)CNC(=O)c1cnc(Nc2ccc3cnccc3n2)cc1NC1CC1 (centres unmarked) [I-97]
8 | C (<20% degradation) | O=C(COc1cccc2c1C(=O)N(C1CCC(=O)NC1=O)C2=O)NCCOCCOCCNC(=O)[C@H]1C[C@H](NC(=O)c2cnc(Nc3ccc4cnccc4n3)cc2NC2CC2)C1 (some centres unmarked) [I-16]
9 | B (>20-50% degradation) | O=C(COc1cccc2c1C(=O)N(C1CCC(=O)NC1=O)C2=O)NCCOCCOCCOCCOCC(F)CNC(=O)c1cnc(Nc2ccc3cnccc3n2)cc1NC1CC1 (centres unmarked) [I-98]
10 | C (<20% degradation) | COc1cc(Nc2nc(N[C@H]3CCCC[C@H]3N)n3ccnc3c2C(N)=O)cc(OC)c1OCCOCCOCCOCC(=O)N[C@H](C(=O)N1C[C@H](O)C[C@H]1C(=O)NCc1ccc(-c2scnc2C)cc1)C(C)(C)C [I-165]
11 | B (>20-50% degradation) | COc1cc2c(cc1OCCOCCOCCOCCOCCOCC(=O)N[C@H](C(=O)N1C[C@H](O)C[C@H]1C(=O)NCc1ccc(-c3scnc3C)cc1)C(C)(C)C)ncc1c3ccc(C#N)cc3[nH]c21 [I-203]
12 | C (<20% degradation) | O=C1CCC(N2C(=O)c3cccc(NCCOCCOCCOCCOCCOCC(F)CNC(=O)c4cnc(Nc5ccc6ncsc6c5)cc4NC4CC4)c3C2=O)C(=O)N1 (centres unmarked) [I-52]
13 | C (<20% degradation) | O=C1CCC(N2C(=O)c3cccc(NCCCOCCCNC(=O)[C@H]4CC[C@H](NC(=O)c5cnc(Nc6ccc7cnccc7n6)cc5NC5CC5)CC4)c3C2=O)C(=O)N1 (stereo partly drawn) [I-30, 6-((1,6-naphthyridin-2-yl)amino)-4-(cyclopropylamino)-N-((1R,4R)-4-((3-(3-((2-(2,6-dioxopiperidin-3-yl)-1,3-dioxoisoindolin-4-yl)amino)propoxy)propyl)carbamoyl)cyclohexyl)nicotinamide]
14 | C (<20% degradation) | O=C(COc1cccc2c1C(=O)N(C1CCC(=O)NC1=O)C2=O)NCCOCCOCCOCCNC(=O)[C@H]1CC[C@H](NC(=O)c2cnc(Nc3ccc4cnccc4n3)cc2NC2CC2)CC1 (some centres unmarked) [I-2]
15 | C (<20% degradation) | O=C1CCC(N2C(=O)c3cccc(NCCOCCOCCOCC(=O)N4CCC(NC(=O)c5cnc(Nc6ccc7cnccc7n6)cc5NC5CC5)CC4)c3C2=O)C(=O)N1 (centres unmarked) [I-43, 6-((1,6-naphthyridin-2-yl)amino)-4-(cyclopropylamino)-N-(1-(2-(2-(2-(2-((2-(2,6-dioxopiperidin-3-yl)-1,3-dioxoisoindolin-4-yl)amino)ethoxy)ethoxy)ethoxy)acetyl)piperidin-4-yl)nicotinamide]
16 | C (<20% degradation) | COc1cc(Nc2nc(N[C@H]3CCCC[C@H]3N)n3ccnc3c2C(N)=O)cc(OC)c1OCCOCCOCCOCCNc1cccc2c1C(=O)N(C1CCC(=O)NC1=O)C2=O (stereo partly drawn) [I-200, 5-(((1S,2R)-2-aminocyclohexyl)amino)-7-((4-(2-(2-(2-(2-((2-(2,6-dioxopiperidin-3-yl)-1,3-dioxoisoindolin-4-yl)amino)ethoxy)ethoxy)ethoxy)ethoxy)-3,5-dimethoxyphenyl)amino)imidazo[1,2-c]pyrimidine-8-carboxamide]
17 | A (>50% degradation) | O=C(COc1cccc2c1C(=O)N(C1CCC(=O)NC1=O)C2=O)NCCCCCNC(=O)[C@H]1CC[C@H](NC(=O)c2cnc(Nc3ccc4cnccc4n3)cc2NC2CC2)CC1 (some centres unmarked) [I-4]
18 | C (<20% degradation) | CC(C)(OCC(=O)NCCOCCOCCNc1cccc2c1C(=O)N(C1CCC(=O)NC1=O)C2=O)C(F)CNC(=O)c1cnc(Nc2ccc3cnccc3n2)cc1NC1CC1 (centres unmarked) [I-55]
19 | B (>20-50% degradation) | O=C(COc1cccc2c1C(=O)N(C1CCC(=O)NC1=O)C2=O)NCCCNC(=O)[C@H]1CC[C@H](NC(=O)c2cnc(Nc3ccc4cnccc4n3)cc2NC2CC2)CC1 (some centres unmarked) [I-7]
20 | C (<20% degradation) | O=C(COc1cccc2c1C(=O)N(C1CCC(=O)NC1=O)C2=O)NCCOCCOCCOCC(F)CNC(=O)c1cnc(Nc2ccc3cnccc3n2)cc1NC1CC1 (centres unmarked) [I-96]
21 | B (>20-50% degradation) | O=C(COc1cccc2c1C(=O)N(C1CCC(=O)NC1=O)C2=O)NCCCCCOCCOCCCCCNC(=O)[C@H]1CC[C@H](NC(=O)c2cnc(Nc3ccc4cnccc4n3)cc2NC2CC2)CC1 (some centres unmarked) [I-5]
22 | C (<20% degradation) | COc1cc(Nc2nc(N[C@H]3CCCC[C@H]3N)n3ccnc3c2C(N)=O)cc(OCCOCCOCCOCCOCCOCC(=O)N[C@H](C(=O)N2C[C@H](O)C[C@H]2C(=O)NCc2ccc(-c3scnc3C)cc2)C(C)(C)C)c1 [I-163]
23 | B (>20-50% degradation) | O=C(COc1cccc2c1C(=O)N(C1CCC(=O)NC1=O)C2=O)NCCCCCOCCOCCOCCCCCNC(=O)[C@H]1CC[C@H](NC(=O)c2cnc(Nc3ccc4cnccc4n3)cc2NC2CC2)CC1 (stereo partly drawn) [I-1, 6-((1,6-naphthyridin-2-yl)amino)-4-(cyclopropylamino)-N-((1R,4R)-4-((1-((2-(2,6-dioxopiperidin-3-yl)-1,3-dioxoisoindolin-4-yl)oxy)-2-oxo-9,12,15-trioxa-3-azaicosan-20-yl)carbamoyl)cyclohexyl)nicotinamide]
